Here are results for two compounds from patent US20180353501A1 (Arvinas, Inc., priority 2017, published 2018).

Bounds are passed on as bounds.

One test concerns the target T1, p38α (Homo sapiens, UniProt Q16539).
T1 construct: selectively degrades p38α, whereas exemplary PROTAC 46 (10-atom linker, phenyl attachment) selectively degrades p38δ in MDA-MB-231 cells; endogenous in cells; host or cells: MDA-MB-231
Description: Cellular assay of target protein degradation (MDA-MB-231 cells, ELISA). It counts as cell-based. How it is done:
(§1) Protocol of the cellular assay of target protein degradation (MDA-MB-231 cells, ELISA).
(§2) For detection Cell Signaling PathScan Sandwich ELISA Catalog#12850 was used. MDA-MB-231 cells and […] were cultured in ATCC DMEM+ATCC FBS and plated 40,000/well 100 μl/well in RPMI P/S with 5% CSS Omega (bovine) serum into a 96 well plate. The cells were grown for a minimum of 3 days, dosed with compounds in 0.1% DMSO (diluted with 5% CSS) and incubated with aspiration for 4 hours. 100 μl of 1× Cell Signaling lysis buffer #9803 (36 mL dH2O+4 mL Cell Signaling lysis buffer) was added. The incubation was placed on cold room shaker for 10 minutes at speed 8-9.5 μl to 100 μL of Diluent was transferred to ELISA plate (0.15 μg/mL-0.075 μg/mL) and stored at 4° C. overnight on cold room shaker speed 5 (gentle swirl) and then shaken next morning at 37° C. for 30 minutes. The preparation was washed 4×200 μl with ELISA wash buffer and aspirated with eight-channel aspirator. 100 μl/well of target protein detection antibody was added after, which the preparation was covered and shaken at 37° C. for 1 hour. 100 μl TMB was added, and the mixture was shaken for 5 min while under observation. When TMB turned light blue, 100 μl of Stop solution was added, and the mixture was shaken and read at 450 nm. Also read at 562 nm for background subtraction.

The target in the next test is T2, p38δ (Homo sapiens, UniProt O15264).
T2 construct: endogenous in cells; host or cells: MDA-MB-231 (intact cells for degradation; cleared cell lysate for CETSA)
T2 sequence (O15264 1-365): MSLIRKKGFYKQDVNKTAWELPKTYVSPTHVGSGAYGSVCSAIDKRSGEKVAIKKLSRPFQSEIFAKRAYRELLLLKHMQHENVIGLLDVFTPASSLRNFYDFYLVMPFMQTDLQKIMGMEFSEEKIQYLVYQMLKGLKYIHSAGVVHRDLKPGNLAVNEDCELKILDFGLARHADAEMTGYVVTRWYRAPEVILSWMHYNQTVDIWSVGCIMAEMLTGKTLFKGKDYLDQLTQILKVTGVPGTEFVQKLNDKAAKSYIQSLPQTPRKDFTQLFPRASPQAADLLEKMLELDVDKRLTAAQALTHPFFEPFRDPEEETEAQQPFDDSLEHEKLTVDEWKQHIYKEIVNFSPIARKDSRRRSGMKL
The test is described as above. It counts as cell-based. Particulars: for DC50: read-out: p38δDC50/nM [MDA-MB-231]. How it is done:
as §1, §2

For test [1], the target named is T3, p38δ:PROTAC:VHL ternary complex (Homo sapiens, UniProt O15264+P40337).
T3 construct: encoding a region spanning amino acids 1-365 was PCR-amplified; His6 (N); made in house; host or cells: E. coli (BL21-CodonPlus(DE3)-RIPL for p38δ; BL21(DE3) for GST-VBC)
Description: In vitro ternary complex pull-down with GST-VBC bait, purified p38δ. It counts as binding. The source says:
FIGS. 15A, 15B, and 15C. Differential p38δ:PROTAC:VHL ternary complex affinities result in distinct cellular ubiquitination outcomes. (A) Both exemplary compound 50 and 46 pull-down p38δ in vitro, however compound 46 maintains ternary complex at lower concentrations. As in FIG. 14A, GST-tagged VBC was used as a bait to trap recombinant p38δ in the presence of vehicle (DMSO) or the indicated concentrations of compound 50 or 46. The rightmost lane represents a 1:25 dilution of initial input protein used in each pull-down. […] GST-VBC was immobilized on glutathione sepharose beads and incubated with MDA-MB-231 whole cell lysate (WCL) in the presence of vehicle (DMSO) or the indicated concentrations of compound 50 or 46. Beads were washed and “trapped” proteins (i.e. those that engage in a ternary complex) were eluted with SDS sample buffer and separated by SDS-PAGE. Samples were assessed by western blot and CUL2 and α-tubulin serve as positive and negative GST-VBC immunoprecipitation controls, respectively. (C) Only exemplary compound 46 ubiquitinates FLAG-p38δ in HeLa cells. As in FIG. 14C, HeLa cells were co-transfected with HA-Ub and FLAG-p38δ and were either treated with vehicle (DMSO) or 1 μM of compound 50 or 1 μM of compound 46 for 2 hours. FLAGimmunoprecipitated lysates were separated by SDS-PAGE and assessed via western blots detecting HA (Ub). […]

T1 sequence (Q16539 whole entry): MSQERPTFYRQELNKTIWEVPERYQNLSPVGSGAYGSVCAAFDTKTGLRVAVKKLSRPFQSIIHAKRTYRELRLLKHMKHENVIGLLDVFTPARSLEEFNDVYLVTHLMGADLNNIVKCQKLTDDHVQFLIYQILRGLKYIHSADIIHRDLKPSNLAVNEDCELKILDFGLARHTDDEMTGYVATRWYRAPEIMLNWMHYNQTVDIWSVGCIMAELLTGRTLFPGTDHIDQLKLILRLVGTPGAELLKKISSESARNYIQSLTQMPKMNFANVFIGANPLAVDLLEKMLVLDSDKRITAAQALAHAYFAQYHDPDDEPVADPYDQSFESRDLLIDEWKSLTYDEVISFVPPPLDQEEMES
T3 sequence (P40337 whole entry, one chain of several, the tested form may be a part): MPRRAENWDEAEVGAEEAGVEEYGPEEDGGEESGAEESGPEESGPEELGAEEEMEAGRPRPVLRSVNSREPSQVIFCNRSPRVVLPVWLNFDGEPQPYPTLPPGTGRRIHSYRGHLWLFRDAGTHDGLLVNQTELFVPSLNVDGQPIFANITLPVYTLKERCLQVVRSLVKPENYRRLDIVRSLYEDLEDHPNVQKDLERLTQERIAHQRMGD
T3 sequence (Q15370 whole entry partner, one chain of several, the tested form may be a part): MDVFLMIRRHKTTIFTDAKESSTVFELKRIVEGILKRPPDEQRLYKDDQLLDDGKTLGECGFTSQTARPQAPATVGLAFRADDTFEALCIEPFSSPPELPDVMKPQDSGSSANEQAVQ
T3 sequence (Q15369 whole entry partner, one chain of several, the tested form may be a part): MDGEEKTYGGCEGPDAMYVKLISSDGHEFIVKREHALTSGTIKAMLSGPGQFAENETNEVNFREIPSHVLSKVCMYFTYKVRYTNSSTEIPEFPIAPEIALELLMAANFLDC

Usually Dmax stands for the largest share of the target that was removed. A higher Dmax goes with deep degradation. With `COc1cc2c(Oc3ccc(NC(=O)C4(C(=O)Nc5ccc(F)cc5)CC4)cc3F)ccnc2cc1OCCOCCOCCOc1cc(-c2scnc2C)ccc1CNC(=O)[C@@H]1C[C@@H](O)CN1C(=O)[C@H](C(C)C)N1Cc2ccccc2C1=O` [compound 46], at p38α, the DC50 is above 5000 nM and the Dmax is 33%. At p38δ, the greatest degradation seen (Dmax) stood at 93% and the DC50 worked out at 84.9 nM. Besides, the “pull-down of purified p38δ on GST-VBC-coated beads” value in test [1] is “slightly greater ternary complex pull-down efficiency”.

Consider `COc1cc2c(Oc3ccc(NC(=O)C4(C(=O)Nc5ccc(F)cc5)CC4)cc3F)ccnc2cc1OCCCCOCCCCOCC(=O)N[C@H](C(=O)N1C[C@H](O)C[C@H]1C(=O)NCc1ccc(-c2scnc2C)cc1)C(C)(C)C` [compound 50, N-(3-fluoro-4-((7-(4-(4-(2-(((S)-1-((2S,4R)-4-hydroxy-2-((4-(4-methylthiazol-5-yl)benzyl)carbamoyl)pyrrolidin-1-yl)-3,3-dimethyl-1-oxobutan-2-yl)amino)-2-oxoethoxy)butoxy)buto-xy)-6-methoxyquinolin-4-yl)oxy)phenyl)-N-(4-fluorophenyl)cyclopropane-1,1-dicarboxa-mide], for which the figures for the DC50 on p38α and on p38δ were 9.5 nM and above 5000 nM, respectively. Further, the Dmax at p38α worked out at 99%; at p38δ it was 18%. Besides, the “pull-down of purified p38δ on GST-VBC-coated beads” value in test [1] is reported as “able to pull-down purified p38δ on GST-VBC-coated beads in a dose-dependent manner”.
